# Results published in patent US8334316B2, “Substituted organosulfur compounds and methods of using thereof” (ACEA Biosciences, Inc., priority 2004, dated 2012).
# “And” between values parts separate entries of the source, which are not always exact repeats. Identical values can stand only once. Marks after values point to notes of the source that are not given here.
# Legend:
# [1] = test system: microtubules in COS cells; assay: Microtubule network in cultured COS cells (anti-tubulin immunofluorescence, confocal microscopy); type: cell-based
# Experimental: Cell Culture and Immunocytochemistry. COS cells were grown in DMEM media supplemented with non-essential amino acids, 10% FBS, antibiotic-antimycotic (Gibco BRL) at 37° C. and 5.5% CO2. […] Cells were then rinsed once with warm PBS, fixed with cold methanol, rinsed again in PBS and blocked overnight at 4° C. in PBT (PBS, 1% BSA, 0.5% Triton X-100). All subsequent stains and washes were done in PBT at room temperature unless stated otherwise. Cells were stained with the anti-tubulin mouse antibody DM-1 at 1:1000 for 1 hour, washed four times for 15 minutes each and then treated with Cy-3 conjugated goat anti mouse antibody at 1:100 for 1 hour in the dark. Next, samples were washed four times for 15 minutes each in PBT in the dark followed by a final 15 minute wash in PBS in the dark. Samples were then viewed by laser scanning confocal microscopy.
# HCT-8 human colon cancer = HCT-8 human colon cancer xenograft in nude mice (Example 3); type: in vivo; details: for tumor inhibition rate %: vs solvent control
# Source text: (§1) Both male and female mice were used. […] Test control. […] Preparation and Administration of Test Compounds. […] For human tumor xenograft model, all used materials, including animal food, animal cage, supporting materials and apparatus contacted by animals, were high-pressure sterilized. Nude mice were maintained in laminar flow shelves under SPF condition. After tumor transplantation, mouse weight and tumor size in each compound dosage group were dynamically monitored and plotted.
# [2] = test system: Bcap-37 human breast cancer; assay: Bcap-37 human breast cancer xenograft in nude mice, dosing from 24 h after transplantation (Example 3); type: in vivo
# Source text: as §1
# [3] = 8 mg/kg/d iv x7 qd, 7 day after transplantation
# [4] = 20 mg/kg/d iv x7 qd, 7 day after transplantation
# [5] = 20 mg/kg/d iv x7 qd, 25 d (end)
# [6] = 50 mg/kg/d iv x7 qd, 7 day after transplantation
# [7] = 50 mg/kg/d iv x7 qd, 25 d (end)
# [8] = 8 mg/kg iv x7 qd, 7 days after transplantation
smiles,measurement,setting,value
"Fc1ccc(CSSSCc2ccc(F)cc2)cc1 [ACEA100108, Di(p-fluorobenzyl)trisulfide]",Microtubule network appearance,[1]; 4 hours exposure,the microtubule network is markedly altered at all concentrations tested
same,Microtubule network appearance,"[1]; 24 hours, 1 uM and 3 uM",appear relatively normal
same,Microtubule network appearance,"[1]; 24 hours, 9 uM",the microtubules appear short and the network is abnormal
same,TV inhibition rate % T/C,HCT-8 human colon cancer; 8 mg/kg/d iv x7 qd,55.73%
same,Tumor weight,HCT-8 human colon cancer; 8 mg/kg/d iv x7 qd,1.30 ± 0.23 g
same,Mouse Body weight,"HCT-8 human colon cancer; 8 mg/kg/d iv x7 qd, 0 Day (beginning)",18.8 g and 18.8 ± 0.8 g
same,Mouse Body weight,"HCT-8 human colon cancer; 8 mg/kg/d iv x7 qd, 7 d",19.7 ± 0.8 g
same,Mice with palpable tumor / total mice,HCT-8 human colon cancer; [3],6/6††
same,Tumor volume (cm^3),HCT-8 human colon cancer; [3],0.01 cm^3
same,Mouse Body weight,"HCT-8 human colon cancer; 8 mg/kg/d iv x7 qd, 14 d",21.3 ± 1.2 g
same,Tumor volume (cm^3),"HCT-8 human colon cancer; 8 mg/kg/d iv x7 qd, 14 d",0.166 ± 0.05 cm^3
same,Mouse Body weight,"HCT-8 human colon cancer; 8 mg/kg/d iv x7 qd, 21 d",21.8 ± 1.2 g
same,Tumor volume (cm^3),"HCT-8 human colon cancer; 8 mg/kg/d iv x7 qd, 21 d",0.379 ± 0.04 cm^3
same,Mouse Body weight,"HCT-8 human colon cancer; 8 mg/kg/d iv x7 qd, 25 d (end)",22.5 g and 22.5 ± 1 g
same,Tumor volume (cm^3),"HCT-8 human colon cancer; 8 mg/kg/d iv x7 qd, 25 d (end)",0.870 cm^3 and 0.87 ± 0.15 cm^3
same,tumor inhibition rate %,HCT-8 human colon cancer; 8 mg/kg/d iv x7 qd,15.03%
same,TV inhibition rate % T/C,HCT-8 human colon cancer; 20 mg/kg/d iv x7 qd,41.89%
same,Tumor weight,HCT-8 human colon cancer; 20 mg/kg/d iv x7 qd,1.10 ± 0.23 g
same,Mouse Body weight,"HCT-8 human colon cancer; 20 mg/kg/d iv x7 qd, 0 Day (beginning)",18.5 g and 18.5 ± 1 g
same,Mouse Body weight,"HCT-8 human colon cancer; 20 mg/kg/d iv x7 qd, 7 d",19.5 ± 1 g
same,Mice with palpable tumor / total mice,HCT-8 human colon cancer; [4],6/6††
same,Tumor volume (cm^3),HCT-8 human colon cancer; [4],0.01 cm^3
same,Mouse Body weight,"HCT-8 human colon cancer; 20 mg/kg/d iv x7 qd, 14 d",20.7 ± 1 g
same,Tumor volume (cm^3),"HCT-8 human colon cancer; 20 mg/kg/d iv x7 qd, 14 d",0.122 ± 0.04 cm^3
same,Mouse Body weight,"HCT-8 human colon cancer; 20 mg/kg/d iv x7 qd, 21 d",21.8 ± 1.2 g
same,Tumor volume (cm^3),"HCT-8 human colon cancer; 20 mg/kg/d iv x7 qd, 21 d",0.317 ± 0.05 cm^3
same,Mouse Body weight,HCT-8 human colon cancer; [5],22.5 g and 22.5 ± 1 g
same,Tumor volume (cm^3),HCT-8 human colon cancer; [5],0.654 cm^3 and 0.654 ± 0.09 cm^3
same,tumor inhibition rate %,HCT-8 human colon cancer; 20 mg/kg/d iv x7 qd,28.10%
same,TV inhibition rate % T/C,HCT-8 human colon cancer; 50 mg/kg/d iv x7 qd,33.63%
same,Tumor weight,HCT-8 human colon cancer; 50 mg/kg/d iv x7 qd,0.832 ± 0.10 g
same,Mouse Body weight,"HCT-8 human colon cancer; 50 mg/kg/d iv x7 qd, 0 Day (beginning)",18.3 g and 18.3 ± 1 g
same,Mouse Body weight,"HCT-8 human colon cancer; 50 mg/kg/d iv x7 qd, 7 d",17.7 ± 1.2 g
same,Mice with palpable tumor / total mice,HCT-8 human colon cancer; [6],6/6††
same,Tumor volume (cm^3),HCT-8 human colon cancer; [6],0.01 cm^3
same,Mouse Body weight,"HCT-8 human colon cancer; 50 mg/kg/d iv x7 qd, 14 d",17.8 ± 2.3 g
same,Tumor volume (cm^3),"HCT-8 human colon cancer; 50 mg/kg/d iv x7 qd, 14 d",0.112 ± 0.02 cm^3
same,Mouse Body weight,"HCT-8 human colon cancer; 50 mg/kg/d iv x7 qd, 21 d",19.5 ± 1.6 g
same,Tumor volume (cm^3),"HCT-8 human colon cancer; 50 mg/kg/d iv x7 qd, 21 d",0.236 ± 0.02 cm^3
same,Mouse Body weight,HCT-8 human colon cancer; [7],20.3 g and 20.3 ± 1 g
same,Tumor volume (cm^3),HCT-8 human colon cancer; [7],0.525 cm^3 and 0.525 ± 0.14 cm^3
same,tumor inhibition rate %,HCT-8 human colon cancer; 50 mg/kg/d iv x7 qd,45.62%
same,Mice with palpable tumor / total mice,[2]; [8],4/6††
same,Tumor volume (cm^3),[2]; [8],0.01 cm^3
same,Tumor volume (cm^3),"[2]; 8 mg/kg iv x7 qd, 14 d",0.068 ± 0.02 cm^3
same,Tumor volume (cm^3),"[2]; 8 mg/kg iv x7 qd, 21 d",0.214 ± 0.04 cm^3
same,Tumor volume (cm^3),"[2]; 8 mg/kg iv x7 qd, 24 d (end)",0.985 cm^3 and 0.985 ± 0.4 cm^3
same,TV inhibition rate % T/C,[2]; 8 mg/kg/d iv x7 qd,56.15%
same,Tumor weight,[2]; 8 mg/kg/d iv x7 qd,1.18 ± 0.23 g
